% of control and pXC50 data for six compounds are collected here from ChEMBL document CHEMBL5465560, “Selectivity Literature for EUbOPEN Chemogenomic Library” (2024).

The target in test [1] is Serine/threonine-protein kinase B-raf (Homo sapiens) (UniProt P15056). Put plainly: (§1) Selectivity interaction (Kinase panel (Z-LYTE Assay)) EUB0001632a BRAF. Particulars: at 10 µM.
In test [2] the test system is Serine/threonine-protein kinase B-raf (Homo sapiens), P15056 [V600E]. The test is described as §1. Particulars: at 10 µM.
Chain of Serine/threonine-protein kinase B-raf (Homo sapiens), P15056 [V600E] (P15056 whole entry V600E): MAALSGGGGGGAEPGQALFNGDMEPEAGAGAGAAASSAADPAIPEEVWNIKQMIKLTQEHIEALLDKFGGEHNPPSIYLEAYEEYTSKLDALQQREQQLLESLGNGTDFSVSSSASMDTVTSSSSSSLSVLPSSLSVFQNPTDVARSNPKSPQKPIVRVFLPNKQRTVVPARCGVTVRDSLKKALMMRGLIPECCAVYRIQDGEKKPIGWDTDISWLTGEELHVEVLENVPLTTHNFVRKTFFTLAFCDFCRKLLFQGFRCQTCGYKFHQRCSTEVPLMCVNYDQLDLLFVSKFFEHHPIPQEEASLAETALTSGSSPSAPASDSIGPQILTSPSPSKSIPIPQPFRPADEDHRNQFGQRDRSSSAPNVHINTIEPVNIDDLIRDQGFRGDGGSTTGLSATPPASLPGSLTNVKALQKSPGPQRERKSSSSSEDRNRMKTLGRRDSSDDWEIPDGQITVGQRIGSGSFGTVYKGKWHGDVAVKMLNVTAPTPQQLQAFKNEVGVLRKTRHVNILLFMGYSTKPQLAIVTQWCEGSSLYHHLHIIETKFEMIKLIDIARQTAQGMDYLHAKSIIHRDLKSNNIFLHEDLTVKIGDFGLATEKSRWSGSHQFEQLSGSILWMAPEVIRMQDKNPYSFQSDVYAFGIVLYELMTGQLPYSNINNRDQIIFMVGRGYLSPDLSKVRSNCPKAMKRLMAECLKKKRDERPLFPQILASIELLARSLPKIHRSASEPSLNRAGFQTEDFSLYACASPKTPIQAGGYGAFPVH
In test [3] the target is T1, Calcium/calmodulin-dependent protein kinase type IV (Homo sapiens) (UniProt Q16566).
T1 sequence (whole entry): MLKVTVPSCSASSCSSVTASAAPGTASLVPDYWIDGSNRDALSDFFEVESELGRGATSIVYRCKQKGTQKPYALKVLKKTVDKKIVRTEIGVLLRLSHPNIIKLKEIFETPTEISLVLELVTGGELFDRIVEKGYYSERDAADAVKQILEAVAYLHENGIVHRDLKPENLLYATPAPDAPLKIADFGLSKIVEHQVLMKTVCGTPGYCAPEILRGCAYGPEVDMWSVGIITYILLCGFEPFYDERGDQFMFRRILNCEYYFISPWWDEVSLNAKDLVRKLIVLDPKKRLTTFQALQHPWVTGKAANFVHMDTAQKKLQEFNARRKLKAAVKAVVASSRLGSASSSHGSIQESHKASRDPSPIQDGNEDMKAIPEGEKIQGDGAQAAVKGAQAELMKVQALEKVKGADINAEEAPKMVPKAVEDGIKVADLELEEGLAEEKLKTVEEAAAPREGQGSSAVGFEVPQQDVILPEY
Put plainly: Selectivity interaction (KinomeScan (DiscoverX)) EUB0001619a CAMK4. Particulars: at 1 µM.

Test [4] addresses Casein kinase I isoform epsilon (Homo sapiens, UniProt P49674). Put plainly: Selectivity interaction (KinomeScan (DiscoverX)) EUB0000607a CSNK1E. Particulars: at 10 µM.
The target of test [5] is T2, Serine/threonine-protein kinase DCLK3 (Homo sapiens) (UniProt Q9C098).
T2 sequence (whole entry): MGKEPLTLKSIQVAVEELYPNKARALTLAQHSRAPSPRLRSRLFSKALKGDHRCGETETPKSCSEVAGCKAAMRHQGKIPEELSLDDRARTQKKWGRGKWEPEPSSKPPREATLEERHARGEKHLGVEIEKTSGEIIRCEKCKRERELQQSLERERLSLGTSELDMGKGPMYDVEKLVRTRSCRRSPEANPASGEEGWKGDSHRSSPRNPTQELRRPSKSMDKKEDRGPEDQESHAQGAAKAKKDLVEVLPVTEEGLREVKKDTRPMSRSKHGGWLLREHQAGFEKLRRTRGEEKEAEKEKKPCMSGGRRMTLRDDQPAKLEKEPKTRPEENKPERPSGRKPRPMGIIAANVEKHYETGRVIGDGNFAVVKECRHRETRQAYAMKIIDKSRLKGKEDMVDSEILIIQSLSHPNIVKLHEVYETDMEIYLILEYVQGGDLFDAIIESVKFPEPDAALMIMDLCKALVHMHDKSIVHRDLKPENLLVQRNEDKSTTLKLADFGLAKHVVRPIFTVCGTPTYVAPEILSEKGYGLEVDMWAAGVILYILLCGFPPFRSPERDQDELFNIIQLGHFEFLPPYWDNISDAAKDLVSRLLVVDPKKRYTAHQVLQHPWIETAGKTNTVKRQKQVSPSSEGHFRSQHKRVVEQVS
Particulars: at 10 µM.

The target in test [6] is Serine/threonine-protein kinase/endoribonuclease IRE1 (Homo sapiens) (UniProt O75460). Particulars: at 10 µM.
Chain of Serine/threonine-protein kinase/endoribonuclease IRE1 (Homo sapiens) (O75460 19-977 limits assumed): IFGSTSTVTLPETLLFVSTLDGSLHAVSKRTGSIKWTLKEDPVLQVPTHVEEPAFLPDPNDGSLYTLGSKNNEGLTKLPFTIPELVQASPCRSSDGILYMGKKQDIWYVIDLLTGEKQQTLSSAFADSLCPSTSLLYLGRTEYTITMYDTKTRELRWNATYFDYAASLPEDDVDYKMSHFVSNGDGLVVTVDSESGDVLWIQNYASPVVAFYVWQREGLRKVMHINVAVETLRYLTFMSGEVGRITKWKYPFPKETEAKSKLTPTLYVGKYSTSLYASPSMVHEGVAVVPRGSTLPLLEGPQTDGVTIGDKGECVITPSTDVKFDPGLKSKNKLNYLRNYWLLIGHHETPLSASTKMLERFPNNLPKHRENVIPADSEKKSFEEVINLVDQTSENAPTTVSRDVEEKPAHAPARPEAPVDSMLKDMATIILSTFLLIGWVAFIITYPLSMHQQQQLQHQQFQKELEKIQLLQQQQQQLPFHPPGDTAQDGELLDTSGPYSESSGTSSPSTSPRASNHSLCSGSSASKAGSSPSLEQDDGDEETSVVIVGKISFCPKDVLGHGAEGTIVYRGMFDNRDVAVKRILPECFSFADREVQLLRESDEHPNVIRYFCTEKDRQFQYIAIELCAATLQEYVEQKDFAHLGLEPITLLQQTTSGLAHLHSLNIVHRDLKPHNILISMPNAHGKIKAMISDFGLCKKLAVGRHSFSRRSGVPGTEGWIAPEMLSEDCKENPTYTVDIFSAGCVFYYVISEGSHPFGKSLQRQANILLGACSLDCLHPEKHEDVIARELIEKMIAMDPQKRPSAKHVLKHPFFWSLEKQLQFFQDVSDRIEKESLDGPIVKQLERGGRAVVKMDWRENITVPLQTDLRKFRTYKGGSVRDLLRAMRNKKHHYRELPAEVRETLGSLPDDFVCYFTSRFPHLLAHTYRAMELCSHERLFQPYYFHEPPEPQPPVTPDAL
Test [7] has as its target T3, Alpha-2C adrenergic receptor (Homo sapiens) (UniProt P18825).
T3 sequence (whole entry): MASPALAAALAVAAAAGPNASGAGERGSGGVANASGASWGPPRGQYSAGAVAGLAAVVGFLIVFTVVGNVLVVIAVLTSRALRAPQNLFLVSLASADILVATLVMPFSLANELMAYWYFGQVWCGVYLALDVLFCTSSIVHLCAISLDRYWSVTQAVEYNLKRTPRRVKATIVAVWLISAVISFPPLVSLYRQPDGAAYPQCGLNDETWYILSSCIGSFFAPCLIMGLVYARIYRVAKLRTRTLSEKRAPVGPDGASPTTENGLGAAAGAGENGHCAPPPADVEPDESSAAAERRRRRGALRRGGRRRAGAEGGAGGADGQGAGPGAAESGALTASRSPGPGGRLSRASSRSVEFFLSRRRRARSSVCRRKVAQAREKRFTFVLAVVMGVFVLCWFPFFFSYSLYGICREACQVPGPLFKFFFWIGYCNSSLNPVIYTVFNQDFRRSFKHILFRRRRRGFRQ
Put plainly: Selectivity interaction (Panel of kinases, GPCRs, ion channels and transporters (enzymatic assay)) EUB0000223bCl ADRA2C.

Test [8] deals with T4, Mitogen-activated protein kinase 12 (Homo sapiens) (UniProt P53778).
T4 sequence (whole entry): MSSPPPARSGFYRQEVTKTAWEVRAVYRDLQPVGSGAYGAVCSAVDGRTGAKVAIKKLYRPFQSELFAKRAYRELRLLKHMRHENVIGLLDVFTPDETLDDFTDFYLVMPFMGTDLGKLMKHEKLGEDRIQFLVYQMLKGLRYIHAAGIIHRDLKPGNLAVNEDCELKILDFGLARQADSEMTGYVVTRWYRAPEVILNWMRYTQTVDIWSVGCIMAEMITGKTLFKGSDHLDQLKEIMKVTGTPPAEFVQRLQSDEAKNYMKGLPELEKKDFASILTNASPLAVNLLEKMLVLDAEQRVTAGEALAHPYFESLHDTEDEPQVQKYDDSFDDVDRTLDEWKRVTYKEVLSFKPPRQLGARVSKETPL
Put plainly: Selectivity interaction (KinomeScan (DiscoverX)) EUB0000618a MAPK12. Particulars: at 10 µM.

Chain of Casein kinase I isoform epsilon (P49674 whole entry, looked up, canonical isoform): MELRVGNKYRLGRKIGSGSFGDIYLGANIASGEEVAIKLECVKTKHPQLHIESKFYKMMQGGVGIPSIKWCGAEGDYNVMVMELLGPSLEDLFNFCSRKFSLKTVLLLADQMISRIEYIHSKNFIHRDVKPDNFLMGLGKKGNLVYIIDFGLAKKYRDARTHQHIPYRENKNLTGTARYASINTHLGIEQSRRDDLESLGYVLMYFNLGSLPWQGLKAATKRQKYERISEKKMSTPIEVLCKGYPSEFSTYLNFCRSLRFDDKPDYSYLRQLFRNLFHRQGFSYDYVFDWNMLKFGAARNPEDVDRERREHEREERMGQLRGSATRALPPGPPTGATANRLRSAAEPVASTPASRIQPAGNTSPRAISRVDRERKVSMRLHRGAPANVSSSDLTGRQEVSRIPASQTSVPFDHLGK
Chain of Serine/threonine-protein kinase B-raf (Homo sapiens) (P15056 whole entry): as the sequence (P15056 whole entry V600E) above, with E600V counted along it

For `Cn1cc(-n2cnc3c(NCc4nc5cc(Cl)c(Cl)cc5[nH]4)nc(N4CCOCC4)nc32)cn1`, the figures for the % of control in test [1] and in test [2] were -4.02% and 46.2%, respectively.

`N#Cc1cccc(-c2c[nH]c3ncnc(N4CCOCC4)c23)c1`: in test [3], the % of control worked out at 100%.

On to `CNC(=O)Nc1ccc(-c2nc(N3CC4CCC(C3)O4)c3cnn(C4CCC5(CC4)OCCO5)c3n2)cc1`, for which the % of control in test [4] came out at 39%.

Take `Cc1cc([C@@H](C)Nc2ccccc2C(=O)O)c2nc(N3CCOCC3)cc(=O)n2c1` [AZD-6482]: the values for the % of control in test [5] and in test [6] were 85% and 91%, respectively.

As to `COc1cc(C(=O)N2CC[C@@H](O)[C@@H](N)C2)cc2nc(-c3cc4ccccc4n3CC3CC3)n(C)c12`, in test [7], the pXC50 was under 4.5 M.

As for `O[C@H]1CC[C@H](Nc2ncc3nc(Nc4c(F)cc(F)cc4F)n([C@H]4CCOC4)c3n2)CC1`, the % of control in test [8] was 80%.
